Assay results reported in patent US20260297027A1, “Non-Peptide Small Molecule FGF14:Nav1.6 Channel Complex Protein-Protein Interaction Modulators” (The Board of Regents of The University of Texas System, priority 2023, published 2026).
Entries after “also recorded” stand apart in the source; their conditions may differ.

Legend:
FGF14:Nav1.6 complex = target: T1, FGF14:Nav1.6 complex (Homo sapiens, UniProt Q92915+Q9UQD0); experiment: Split-luciferase complementation assay (LCA); format: cell-based
T1 construct: split firefly luciferase complementation
T1 sequence (Q9UQD0 1763-1980 limits assumed, one chain of several): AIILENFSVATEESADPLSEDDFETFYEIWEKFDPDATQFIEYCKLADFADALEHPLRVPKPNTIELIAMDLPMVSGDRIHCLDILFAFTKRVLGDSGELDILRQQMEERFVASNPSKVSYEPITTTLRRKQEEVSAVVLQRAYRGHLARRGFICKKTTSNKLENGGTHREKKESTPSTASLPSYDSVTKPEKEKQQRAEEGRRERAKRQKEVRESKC
Description: To identify small molecule probes targeting the FGF14:Nav1.6 PPI interface, the FGF14:Nav1.6 complex was reconstituted using the split-luciferase complementation assay (LCA), and a candidate pool of ~45,000 commercially available compounds was screened. An established screening pipeline was employed to validate hits. […] FIG. 1B summarizes exclusion of compounds based on the CellTiter Blue (CTB) cell viability fluorescence assay.
Primary assays: Split-luciferase complementation assay (LCA). The primary assay to detect FGF14:Nav1.6 complex formation in real-time in living cells is the split-luciferase complementation assay (LCA), which has been designed and successfully implemented specifically to study PPI between the Nav channel and iFGFs. With LCA, in-cell reconstitution of the FGF14:Nav1.6 channel complex was detected upon addition of the D-luciferin substrate, as a robust light signal representing the strength of interaction between the two binding partners. […] The high signal-to-noise ratio, favorable dynamic range, and reversibility of luminescence-based signals make LCA the ideal for HTS of potential regulators, as well as rapid dose-dependency studies (≥8 concentrations) to help guide subsequent in-depth hit validation using more labor-intensive approaches. […]

[1] = tested on: Nav1.6 (cells stably expressing Nav1.6 and FGF14-GFP); experiment: Patch-clamp electrophysiology in heterologous cells expressing Nav1.6 and FGF14; format: cell-based; conditions: 1 μM
Description: (§1) Confirmatory assays: Automated and manual patch-clamp electrophysiology in heterologous cells. Patch-clamp electrophysiology is a rigorous, sophisticated confirmatory and orthogonal assay that serves to assess compound functional activity, mechanism of action, specificity, and selectivity toward various Nav isoforms. It is highly predictive of in vivo efficacy of compounds. In this assay, compounds are tested in cells stably expressing FGF14 and Nav1.6 or other relevant iFGF:Nav channel pairs. Initially screened with an automated planar patch-clamp system, compounds were tested with an 8-point dose-response in 384-well plates with a throughput of >2,000 data sets/week. Compounds were then confirmed with manual patch-clamp at targeted concentrations. A multitude of physiological parameters of Nav channels including Na+ current amplitude, kinetics, voltage-dependence, use-dependency, and time-dependency reflecting the channel closed, opened, and inactivated states were automatically measured using specialized software (i.e., CLAMPEX). Data were typically derived from n=10-20 recordings, N=3 batches of cells. Data were compared using either Student's t-test or two-way ANOVA mixed model.
(§2) Functional activity of Compound PW01028. To study compound PW01028 functional activity against Nav1.6-encoded currents were studied in heterologous cells stably expressing Nav1.6 and/or FGF14-GFP (FIGURE). […]

[2] = tested on: medium spiny neurons (MSN), Fgf14^−/−; experiment: Patch-clamp electrophysiology in brain slices, MSN of NAc from Fgf14-/- mice; format: cell-based; conditions: n=7-8/group, p>0.05, in words
Description: (§3) Patch-clamp electrophysiology in brain slices. This assay provides a critical confirmatory step from the heterologous cell to the native system. With this assay, selected compounds were tested (typically, 3 concentrations) for their modulatory effects on MSN firing and Na+ currents using current clamp and voltage clamp recordings Parameters of interest included action potential threshold, amplitude, rise time, firing frequency, amplitude of Na+ currents and passive properties (i.e., Rseries, Rinput, Vm). Not only is this assay predictive of a compound's in vivo activity, it provides an assessment of potential toxicity and side effects based on secondary measurements (i.e., frequency, amplitude, and kinetics of synaptic potentials, Rinput, Vm). This assay was also used as the first target validation step in native tissue as compounds are concomitantly tested in neurons from Fgf14^−/− mice. Recordings were conducted from at least N=3 animals, n=10-15 recordings; effect is calculated using ANOVA mixed model.
(§4) Target validation of compound PW01028 in NAc slices.

FGF14 = target: T2, FGF14 (Homo sapiens, UniProt Q92915); experiment: Surface plasmon resonance (SPR), FGF14; format: binding
T2 sequence (Q92915 1-252 isoform Q92915-2): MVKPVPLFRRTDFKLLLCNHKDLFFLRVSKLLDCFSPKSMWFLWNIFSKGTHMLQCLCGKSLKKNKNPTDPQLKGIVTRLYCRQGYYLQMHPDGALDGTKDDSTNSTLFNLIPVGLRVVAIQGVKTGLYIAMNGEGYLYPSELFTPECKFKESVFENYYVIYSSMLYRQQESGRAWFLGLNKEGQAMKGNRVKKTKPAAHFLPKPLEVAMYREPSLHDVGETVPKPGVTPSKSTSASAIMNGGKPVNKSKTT
Description: (§5) Secondary bioactivity assays: Surface plasmon resonance (SPR). Analogues were then tested using SPR against FGF14 and Nav1.6-C-terminal tail purified proteins, the gold standard for protein binding studies. SPR experiments were used to quantitatively assess the binding affinity of analogues, serving as both a secondary bioactivity assay to determine accurate binding affinities for protein:ligand interactions via KD, Kon and Koff, as well as to assess the compound's ability to disrupt PPI. The reliability of the model, goodness of fit, and reported kinetic and binding constants were validated by varying flow rates, immobilization densities, or different chips. Statistical analysis was conducted by visually inspecting the goodness of fit of the data from the residuals. Additionally, c2 was used as a global measure for residual noise; standard deviation was used to report errors in measurements by repeating the experiment at least three times.
FIGS. 2A and 2B summarize selectivity and orthogonal validation of hits from the screening assay. […] Compounds that modulated complex assembly by ≥25% were excluded from further studies. Referring to FIG. 2B, the remaining 5 selective hits were then quantitatively assessed using SPR. Binding sensorgrams are shown for FGF14 (left) and Nav1.6 (middle) and normalized steady-state saturation plots (right) reveal differences in compound:protein binding affinities. Kinetic analysis of each ligand/analyte interaction was obtained by fitting the response data to the simplest Langmuir 1:1 interaction model (KD=koff/kon).
Referring to FIG. 2B, the remaining 5 selective hits were then quantitatively assessed using SPR. Binding sensorgrams are shown for FGF14 (left) and Nav1.6 (middle) and normalized steady-state saturation plots (right) reveal differences in compound:protein binding affinities. Kinetic analysis of each ligand/analyte interaction was obtained by fitting the response data to the simplest Langmuir 1:1 interaction model (KD=koff/kon).

[3] = target: T3, Nav1.6 (HEK-Nav1.6 expressing GFP control) (Homo sapiens, UniProt Q9UQD0); experiment: Patch-clamp electrophysiology in HEK-Nav1.6 cells expressing the GFP control construct; format: cell-based; conditions: HEK-Nav1.6 expressing the GFP control construct; in words
T3 construct: patch clamp
T3 sequence (Q9UQD0 whole entry): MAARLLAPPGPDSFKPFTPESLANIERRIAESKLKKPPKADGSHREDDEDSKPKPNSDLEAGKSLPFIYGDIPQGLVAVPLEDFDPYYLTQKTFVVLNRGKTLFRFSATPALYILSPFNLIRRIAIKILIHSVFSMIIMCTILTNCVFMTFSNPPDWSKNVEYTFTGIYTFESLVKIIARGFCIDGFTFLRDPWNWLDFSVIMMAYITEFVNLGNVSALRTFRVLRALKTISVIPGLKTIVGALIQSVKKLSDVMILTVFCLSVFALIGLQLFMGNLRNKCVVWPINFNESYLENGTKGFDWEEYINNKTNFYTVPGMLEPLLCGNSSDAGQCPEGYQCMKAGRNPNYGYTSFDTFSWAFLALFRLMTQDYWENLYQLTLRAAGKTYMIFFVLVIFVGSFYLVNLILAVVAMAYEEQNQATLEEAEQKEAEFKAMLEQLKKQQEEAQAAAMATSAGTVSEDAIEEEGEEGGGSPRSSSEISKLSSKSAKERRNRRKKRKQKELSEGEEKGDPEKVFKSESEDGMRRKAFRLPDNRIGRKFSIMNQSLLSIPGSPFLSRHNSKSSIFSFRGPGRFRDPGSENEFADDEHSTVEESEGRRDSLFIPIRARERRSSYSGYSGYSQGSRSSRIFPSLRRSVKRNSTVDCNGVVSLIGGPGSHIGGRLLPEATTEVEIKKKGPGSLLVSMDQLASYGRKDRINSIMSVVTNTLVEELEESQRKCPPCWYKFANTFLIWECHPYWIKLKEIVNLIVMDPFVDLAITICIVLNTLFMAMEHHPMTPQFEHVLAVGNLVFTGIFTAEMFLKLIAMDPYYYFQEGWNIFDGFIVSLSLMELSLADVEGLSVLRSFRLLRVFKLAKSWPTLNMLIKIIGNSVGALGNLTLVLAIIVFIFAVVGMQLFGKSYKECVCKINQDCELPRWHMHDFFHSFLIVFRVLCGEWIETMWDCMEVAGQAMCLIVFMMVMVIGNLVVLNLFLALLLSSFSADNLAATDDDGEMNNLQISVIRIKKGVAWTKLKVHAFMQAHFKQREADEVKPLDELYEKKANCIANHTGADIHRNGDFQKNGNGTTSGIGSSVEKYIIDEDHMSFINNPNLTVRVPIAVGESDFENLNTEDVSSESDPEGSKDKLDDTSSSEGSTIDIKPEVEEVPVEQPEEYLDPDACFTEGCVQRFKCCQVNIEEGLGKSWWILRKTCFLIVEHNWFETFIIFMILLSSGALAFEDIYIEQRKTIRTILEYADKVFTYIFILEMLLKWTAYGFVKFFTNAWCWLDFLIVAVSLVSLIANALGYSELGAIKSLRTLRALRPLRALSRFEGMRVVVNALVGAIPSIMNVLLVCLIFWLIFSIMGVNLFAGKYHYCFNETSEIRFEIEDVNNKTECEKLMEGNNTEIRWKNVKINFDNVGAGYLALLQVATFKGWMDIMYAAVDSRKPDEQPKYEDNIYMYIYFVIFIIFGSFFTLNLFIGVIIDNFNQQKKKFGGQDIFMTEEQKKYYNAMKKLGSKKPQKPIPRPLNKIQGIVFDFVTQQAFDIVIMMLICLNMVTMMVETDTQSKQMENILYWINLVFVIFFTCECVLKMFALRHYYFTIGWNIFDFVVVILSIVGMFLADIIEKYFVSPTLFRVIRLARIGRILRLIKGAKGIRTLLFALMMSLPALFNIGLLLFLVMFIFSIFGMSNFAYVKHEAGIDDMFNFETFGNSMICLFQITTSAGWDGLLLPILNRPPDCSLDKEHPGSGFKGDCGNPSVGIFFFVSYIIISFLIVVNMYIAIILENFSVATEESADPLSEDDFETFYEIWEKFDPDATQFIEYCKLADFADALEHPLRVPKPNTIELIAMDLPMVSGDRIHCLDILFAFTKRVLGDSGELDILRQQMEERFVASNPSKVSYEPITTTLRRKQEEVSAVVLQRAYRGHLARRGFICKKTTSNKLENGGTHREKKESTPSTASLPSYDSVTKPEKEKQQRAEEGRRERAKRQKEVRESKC
Description: as §1, §2

[4] = tested on: medium spiny neurons (MSN), Fgf14^+/+; experiment: Patch-clamp electrophysiology in brain slices, MSN of NAc from Fgf14+/+ mice; format: cell-based; conditions: 1 micromolar, in words
Description: as §3, §4

Nav1.6 = target: T4, Nav1.6 (Homo sapiens, UniProt Q9UQD0); experiment: Surface plasmon resonance (SPR), Nav1.6-C-terminal tail; format: binding; conditions: Langmuir 1:1 interaction model (KD=koff/kon)
T4 construct: SPR against FGF14 and Nav1.6-C-terminal tail purified proteins
T4 sequence (Q9UQD0 1767-1912 limits assumed): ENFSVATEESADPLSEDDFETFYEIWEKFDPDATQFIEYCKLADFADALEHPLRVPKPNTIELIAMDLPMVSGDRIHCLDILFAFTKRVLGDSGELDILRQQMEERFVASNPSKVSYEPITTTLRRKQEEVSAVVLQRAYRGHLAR
Description: as §5
FIGS. 2A and 2B summarize selectivity and orthogonal validation of hits from the screening assay. […] Compounds that modulated complex assembly by ≥25% were excluded from further studies. Referring to FIG. 2B, the remaining 5 selective hits were then quantitatively assessed using SPR. […]
Referring to FIG. 2B, the remaining 5 selective hits were then quantitatively assessed using SPR. […]

| Compound | IC50 (FGF14:Nav1.6 complex; LCA, read-out: IC50 for modulation of FGF14:Nav1.6 complex formation) [nM] | potency in the LCA dose-response studies (FGF14:Nav1.6 complex; dose-response, in words) | depolarizing shift in the voltage-dependence of steady-state inactivation of the transient Na+ current ([1]; FGF14-mediated regulatory effects on Nav1.6) | effect on voltage-dependence (V1/2) of steady-state inactivation ([1]; in words, n=6-10 cells/group) | effect on MSN firing / Na+ currents [2] | binding affinity to FGF14 (FGF14; in words) | ligand binding to the FGF14 R117 residue (FGF14; in words) | functional effects [3] | effect on Nav channel closure / Na+ currents in MSN ([4]; Fgf14+/+ (wild-type) mice) | effect on MSN firing ([4]; Fgf14+/+ mice, n=19-20/group, p<0.0001) | Kd (Nav1.6) [nM] | Kd (FGF14; Langmuir 1:1 interaction model (KD=koff/kon)) [nM] |
| --- | --- | --- | --- | --- | --- | --- | --- | --- | --- | --- | --- | --- |
| CCOC(=O)c1cccc(NC(=O)Cn2cc(CO)c3ccccc32)c1 [PW01028, Ethyl 3-(2-(3-(hydroxymethyl)-1H-indol-1-yl)acetamido)benzoate] | ~250 | nanomolar potency | +15 mV | markedly shifted V1/2 and steady-state inactivation to a more depolarized potential; also recorded: shifts voltage-dependence of steady-state inactivation of Na+ currents | inactive in MSN from Fgf14^−/− mice; also recorded: Lack of effect; also recorded: absent in Fgf14^−/− mice | nanomolar binding affinity | evidence for ligand binding to the FGF14^R117 residue | no functional effects | potentiated MSN firing and transient Na^+ currents (INaP); also recorded: hampered Nav channel closure, prolonged Na+ currents | potentiated MSN firing; also recorded: increases firing in MSN; also recorded: potentiated intrinsic firing | – | – |
| Cc1cccc(NC(=O)Cn2cc(CO)c3ccccc32)c1 [Compound 7605086, 2-(3-(Hydroxymethyl)-1H-indol-1-yl)-N-(m-tolyl)acetamide] | – | – | – | – | – | – | – | – | – | – | 13600 | 2900 |
